Source: ChEMBL document CHEMBL1152180, “Novel anthraquinone derivatives: synthesis via click chemistry approach and their induction of apoptosis in BGC gastric cancer cells via reactive oxygen species (ROS)-dependent mitochondrial pathway” (Bioorg Med Chem Lett, 2008)
The source made the active and inactive calls. No cut-off for these calls is given here.

Key:
[1] = Induction of apoptosis in human BGC cells assessed as accumulation at subG1 at 25 uM after 24 hrs by flow cytometry analysis; format: functional
[2] = Induction of apoptosis in human BGC cells assessed as dead cell count at 25 uM after 24 hrs using Annexin-V-FITC PI stain by flow cytometry; format: functional
BGC [3] = test: Induction of apoptosis in human BGC cells assessed as loss of mitochondrial membrane potential at 10 uM by flow cytometry; format: functional, cell-based
[4] = Cytotoxicity against human BGC cells by MTT assay; format: functional, cell-based
BGC [5] = test: Induction of apoptosis in human BGC cells assessed as bursting of ROS in mitochondria at 5 uM by DCFH-DA based fluorescence scanning confocal microscopy; format: functional, cell-based
BGC [6] = test: Induction of apoptosis in human BGC cells assessed as morphological changes at 12.5 uM by Hoechst staining based laser confocal microscopy; format: functional, cell-based
BGC [7] = test: Induction of apoptosis in human BGC cells assessed as bursting of ROS in mitochondria at 5 uM in presence of N-acetyl-cysteine; format: functional
BGC [8] = test: Induction of apoptosis in human BGC cells assessed as loss of mitochondrial membrane potential at 10 uM by JC-1 staining based laser confocal microscopy; format: functional, cell-based
[9] = Induction of apoptosis in human BGC cells assessed as early stage apoptotic cell count at 25 uM after 24 hrs using Annexin-V-FITC PI stain by flow cytometry; format: functional
[10] = Induction of apoptosis in human BGC cells assessed as non apoptotic cell count at 25 uM after 24 hrs using Annexin-V-FITC PI stain by flow cytometry; format: functional
[11] = Induction of apoptosis in human BGC cells assessed as late stage apoptotic cell count at 25 uM after 24 hrs using Annexin-V-FITC PI stain by flow cytometry; format: functional
BGC [12] = test: Induction of apoptosis in human BGC cells assessed as bursting of ROS in mitochondria at 5 uM by flow cytometry; format: functional, cell-based

| Compound | Activity [1] | Activity [2] | Activity (BGC [3]) | IC50 [4] | Activity (BGC [5]) | Activity (BGC [6]) | Activity (BGC [7]) | Activity (BGC [8]) | Activity [9] | Activity [10] | Activity [11] | Activity (BGC [12]) |
| --- | --- | --- | --- | --- | --- | --- | --- | --- | --- | --- | --- | --- |
| C[N+]1(CCn2cc(COc3cccc4c3C(=O)c3cccc(OCc5cn(CC[N+]6(C)CCCCC6)nn5)c3C4=O)nn2)CCCCC1.[I-].[I-] | 39.4% | 2.1% | Dose-dependent effect | 4.02 µM | Active | Active | inactive | Active | 22.8% | 74.2% | 1% | Dose-dependent effect |
| C[N+]1(CCCn2cc(COc3cccc4c3C(=O)c3cccc(OCc5cn(CCC[N+]6(C)CC6)nn5)c3C4=O)nn2)CC1 | – | – | Dose-dependent effect | 9.31 µM | – | – | – | Active | – | – | – | – |
| C[N+]1(CCn2cc(COc3cccc4c3C(=O)c3cccc(OCc5cn(CC[N+]6(C)CCCC6)nn5)c3C4=O)nn2)CCCC1 | – | – | Dose-dependent effect | 6.52 µM | – | – | – | Active | – | – | – | – |
